Data taken from patent US12030835B2, “Substituted amide compounds useful as farnesoid X receptor modulators” (BRISTOL-MYERS SQUIBB COMPANY, priority 2019, dated 2024).

What follows are compounds tested against T1, human FXR (Homo sapiens, UniProt Q96RI1) (assay: transient human FXR/Gal4-luciferase reporter assay). Settings: Gal4-hFXR (ligand binding domain) fusion transiently transfected in HEK293 Gal4-luciferase reporter cells; overnight incubation; response as percentage of 8 μM GW-4064 control.
T1 construct: expressed in transfected cells
T1 sequence (Q96RI1 262-486 limits assumed): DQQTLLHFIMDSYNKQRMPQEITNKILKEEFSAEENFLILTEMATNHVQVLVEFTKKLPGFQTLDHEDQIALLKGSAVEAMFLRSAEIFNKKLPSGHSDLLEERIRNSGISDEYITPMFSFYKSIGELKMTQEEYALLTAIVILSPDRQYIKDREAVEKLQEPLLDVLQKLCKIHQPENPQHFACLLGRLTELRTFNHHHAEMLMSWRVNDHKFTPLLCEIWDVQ
Assay type: cell-based
Description: A Gal4-hFXR fusion construct reporter system was used as the primary assay to characterize compound activity. A construct including 5 copies of the Gal4 promoter response element upstream of a firefly luciferase reporter cDNA was stably expressed in HEK293 cells. This reporter cell line was maintained in Dulbecco's Modified Eagle's medium (DMEM; Gibco) supplemented with 1% penicillin-streptomycin (P/S) solution, 500 μg/ml Zeocin and 10% charcoal/dextran-treated fetal bovine serum (cs-FBS) at 37° C. in a humidified 5% CO2 atmosphere. Another plasmid was constructed in which the human cytomegalovirus promoter in the pcDNA3.1 vector directs the expression of the cDNA encoding a fusion protein comprised of the DNA binding domain from the Gal4 transcription factor fused to the ligand binding domain from human FXR.
The day prior to transfection, the reporter cells in culture are detached from the plate with trypsin and plated into a T75 flask at a sufficient density to achieve approximately 90% confluence the next morning. The transfection reagents are prepared by separately diluting 25 μg of the pcDNA3.1-Gal4-FXR plasmid into 1.87 mL of Opti-MEM (Thermo-Fisher), and 40 μL of Lipofectamine 2000 (Thermo-Fisher) into 1.87 mL of Opti-MEM, and then adding the diluted DNA solution into the diluted Lipofectamine 2000 solution and incubating at room temperature for 15-20 minutes. The mixture is further diluted with 10 ml of a solution comprised of DMEM, 10% cs-FBS, and 1% P/S immediately prior to transferring to the cells. The maintenance culture media is aspirated from the cells and the final transfection mixture is added before the cells are incubated overnight at 37° C. in a humidified 5% CO2 atmosphere. This protocol can be scaled up, and the transiently transfected cells can be cryopreserved in an assay-ready format.
For compound testing, 100 nL of the compounds (serial dilutions in DMSO) are dispensed with an Echo acoustic dispenser (Labcyte) into the wells of a Corning/Costar clear bottom 384-well white plate. The transfected cells are harvested, counted, and diluted such that 10-25,000 cells in 25 μL are plated into each well of the 384-well compound assay plate. The compound-treated cells are incubated overnight at 37° C. in a humidified 5% CO2 atmosphere. The next morning 25 μL of Steady-Glo (Promega) are added to each well of the plate, the mixture is incubated for 15 min. with shaking, and luminescence is measured on an Envision (Perkin Elmer) plate reader.

Compound	EC50 [nM]
COC(=O)/C=C/c1cccc(N(C(=O)C2CCCCC2)C(C)C23CCC(c4nc(C)no4)(CC2)CC3)c1 (single isomer, unassigned) [Example 47, Methyl (E)-3-(3-(N-(1-(4-(3-methyl-1,2,4-oxadiazol-5-yl)bicyclo[2.2.2]octan-1-yl)ethyl)cyclohexanecarboxamido)phenyl)acrylate]	152
COC(=O)/C=C/c1cccc(N(CC23CCC(c4ccc(N(C)C)cc4)(CC2)CC3)C(=O)C2CCCCC2)c1 [Example 1, Methyl (E)-3-(3-(N-((4-(4-(dimethylamino)phenyl)bicyclo[2.2.2]octan-1-yl)methyl)cyclohexanecarboxamido)phenyl)acrylate]	78
COC(=O)/C=C/c1cccc(N(CC23CCC(c4ccc(N5CCOCC5)cc4)(CC2)CC3)C(=O)C2CCCCC2)c1 [Example 3, (E)-methyl 3-(3-(N-((4-(4-morpholinophenyl)bicyclo[2.2.2]octan-1-yl)methyl)cyclohexanecarboxamido)phenyl)acrylate]	165
COC(=O)/C=C/c1cccc(N(CC23CCC(c4ccc(N5CCCC5)cc4)(CC2)CC3)C(=O)C2CCCCC2)c1 [Example 4, (E)-methyl 3-(3-(N-((4-(4-(pyrrolidin-1-yl)phenyl)bicyclo[2.2.2]octan-1-yl)methyl)cyclohexanecarboxamido)phenyl)acrylate]	520
COC(=O)/C=C/c1cccc(N(CC23CCC(c4ccc(N(C)C)cc4)(CC2)CC3)C(=O)C2CCOCC2)c1 [Example 6, Methyl (E)-3-(3-(N-((4-(4-(dimethylamino)phenyl)bicyclo[2.2.2]octan-1-yl)methyl)tetrahydro-2H-pyran-4-carboxamido)phenyl)acrylate]	212
COC(=O)/C=C/c1cccc(N(CC23CCC(c4ccccc4)(CC2)CC3)C(=O)C2CCCCC2)c1 [Example 7, Methyl (E)-3-(3-(N-((4-phenylbicyclo[2.2.2]octan-1-yl)methyl)cyclohexanecarboxamido)phenyl)acrylate]	395
COC(=O)/C=C/c1cccc(N(CC23CCC(c4ccc5c(cnn5C)c4)(CC2)OC3)C(=O)C2CCOCC2)c1 [Example 8, (E)-Methyl 3-(3-(N-((1-(1-methyl-1H-indazol-5-yl)-2-oxabicyclo[2.2.2]octan-4-yl)methyl)tetrahydro-2H-pyran-4-carboxamido)phenyl)acrylate]	1600
COC(=O)/C=C/c1cccc(N(CC23CCC(c4ccc5c(cnn5C)c4)(CC2)OC3)C(=O)C2CCN(C)CC2)c1 [Example 9, (E)-Methyl 3-(3-(1-methyl-N-((1-(1-methyl-1H-indazol-5-yl)-2-oxabicyclo[2.2.2]octan-4-yl)methyl)piperidine-4-carboxamido)phenyl)acrylate]	4720
COC(=O)/C=C/c1cccc(N(CC23CCC(c4ccc(OC)cc4)(CC2)OC3)C(=O)C2CCCCC2)c1 [Example 10, Methyl (E)-3-(3-(N-((1-(4-methoxyphenyl)-2-oxabicyclo[2.2.2]octan-4-yl)methyl)cyclohexanecarboxamido)phenyl)acrylate]	319
COC(=O)/C=C/c1cccc(N(CC23CCC(c4ccc(OC)cc4)(CC2)CC3)C(=O)C2CCCCC2)c1 [Example 15, Methyl (E)-3-(3-(N-((4-(4-methoxyphenyl)bicyclo[2.2.2]octan-1-yl)methyl)cyclohexanecarboxamido)phenyl)acrylate]	243

More lines, in order of falling EC50, values ahead:

EC50 [nM]	Compound
2740	COC(=O)C1=Cc2cccc(N(CC34CCC(c5ccc(N6CCOCC6)cc5)(CC3)CC4)C(=O)C3CCCCC3)c2CC1 [Example 11, Methyl 5-(N-((4-(4-morpholinophenyl)bicyclo[2.2.2]octan-1-yl)methyl)cyclohexanecarboxamido)-3,4-dihydronaphthalene-2-carboxylate]
2580	COC(=O)C1=Cc2cccc(N(CC34CCC(c5ccc(N(C)C)cc5)(CC3)CC4)C(=O)C3CCCCC3)c2CC1 [Example 12, methyl 5-(N-((4-(4-(dimethylamino)phenyl)bicyclo[2.2.2]octan-1-yl)methyl)cyclohexanecarboxamido)-3,4-dihydronaphthalene-2-carboxylate]
2240	COc1ccc(C23CCC(CN(C(=O)C4CCCCC4)c4cccc5c4CCC(C(=O)O)=C5)(CC2)CC3)cc1 [Example 17, 5-(N-((4-(4-methoxyphenyl)bicyclo[2.2.2]octan-1-yl)methyl)cyclohexanecarboxamido)-3,4-dihydronaphthalene-2-carboxylic Acid]
1810	COC(=O)C1=Cc2cccc(N(CC34CCC(c5ccc(OC)cc5)(CC3)CC4)C(=O)C3CCCCC3)c2CC1 [Example 18, Methyl 5-(N-((4-(4-methoxyphenyl)bicyclo[2.2.2]octan-1-yl)methyl)cyclohexanecarboxamido)-3,4-dihydronaphthalene-2-carboxylate]
1520	CN(C)c1ccc(C23CCC(CN(C(=O)C4CCCCC4)c4cccc(/C=C/C(=O)O)c4)(CC2)CC3)cc1 [Example 2, (E)-3-(3-(N-((4-(4-(dimethylamino)phenyl)bicyclo[2.2.2]octan-1-yl)methyl)cyclohexanecarboxamido)phenyl)acrylic Acid]
1150	COC(=O)/C=C(\C)c1cccc(N(CC23CCC(c4ccc(N5CCOCC5)cc4)(CC2)CC3)C(=O)C2CCCCC2)c1 [Example 14, Methyl (E)-3-(3-(N-((4-(4-morpholinophenyl)bicyclo[2.2.2]octan-1-yl)methyl)cyclohexanecarboxamido)phenyl)but-2-enoate]
912	CCN(CC)c1ccc(C23CCC(CN(C(=O)C4CCCCC4)c4cccc5c4CCC(C(=O)OC)=C5)(CC2)CC3)cc1 [Example 13, methyl 5-(N-((4-(4-(diethylamino)phenyl)bicyclo[2.2.2]octan-1-yl)methyl)cyclohexanecarboxamido)-3,4-dihydronaphthalene-2-carboxylate]
576	COC(=O)/C=C(\C)c1cccc(N(CC23CCC(c4ccc(OC)cc4)(CC2)CC3)C(=O)C2CCCCC2)c1 [Example 16, Methyl (E)-3-(3-(N-((4-(4-methoxyphenyl)bicyclo[2.2.2]octan-1-yl)methyl)cyclohexanecarboxamido)phenyl)but-2-enoate]
551	COC(=O)/C=C(\C)c1cccc(N(CC23CCC(c4nc(C)no4)(CC2)CC3)C(=O)C2CCCCC2)c1 [Example 19, Methyl (E)-3-(3-(N-((4-(3-methyl-1,2,4-oxadiazol-5-yl)bicyclo[2.2.2]octan-1-yl)methyl)cyclohexanecarboxamido)phenyl)but-2-enoate]
302	COC(=O)/C=C/c1cccc(N(C(=O)C2CCCCC2)C(C)C23CCC(c4nc(C)no4)(CC2)CC3)c1 (single isomer, unassigned) [Example 46, Methyl (E)-3-(3-(N-(1-(4-(3-methyl-1,2,4-oxadiazol-5-yl)bicyclo[2.2.2]octan-1-yl)ethyl)cyclohexanecarboxamido)phenyl)acrylate]
56	COC(=O)/C=C/c1cccc(N(CC23CCC(c4nc(C)no4)(CC2)CC3)C(=O)C2CCCCC2)c1 [Example 20, Methyl (E)-3-(3-(N-((4-(3-methyl-1,2,4-oxadiazol-5-yl)bicyclo[2.2.2]octan-1-yl)methyl)cyclohexanecarboxamido)phenyl)acrylate]
